Measured values: the supplement of paper PMC10307832

How the values were obtained:
Experiment in all cases: relative viability (nuclei count vs DMSO), 5 days (fraction); higher = more cells survive
[1] = compound: CC1=C(C(=NN1)C)CC2=C(C3=C(S2)N(C(=O)N(C3=O)C)CC(C)C)C(=O)N4C[C@@H](CO4)O + CC(=O)c1c(C)c2cnc(Nc3ccc(N4CCNCC4)cn3)nc2n(C2CCCC2)c1=O [Palbociclib] (partner 0.5 µM)
Outline: (§1)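 Relative viability divides the nuclei count in treated wells by that in vehicle wells. Lung cancer cell lines were seeded in 1536-well plates, dosed by pin tool the next day, and fixed and stained after 5 days in one step with final 0.05% Triton X-100, 1% formaldehyde and 1 ug/ml Hoechst. Dosing was a single drug or a fixed anchor-drug dose plus five library-drug doses (not always all listed) in √10 steps, and values are medians of duplicate plates imaged at 4×.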

IDH-C35 + Decitabine = compound: Cc1ccccc1C(C(=O)NC1CCCCC1)N(C(=O)Cn1ccnc1C)c1cccc(F)c1 [IDH-C35] + Nc1ncn([C@H]2C[C@H](O)[C@@H](CO)O2)c(=O)n1 [Decitabine] (partner 2 µM)
Outline: as §1

[2] = compound: CC1=C(C(=NN1)C)CC2=C(C3=C(S2)N(C(=O)N(C3=O)C)CC(C)C)C(=O)N4C[C@@H](CO4)O + Nc1nc2[nH]cc(CCc3ccc(C(=O)N[C@@H](CCC(=O)O)C(=O)O)cc3)c2c(=O)[nH]1 [Pemetrexed] (partner 0.2 µM)
Outline: as §1

IDH-C35 + Alpelisib = compound: Cc1ccccc1C(C(=O)NC1CCCCC1)N(C(=O)Cn1ccnc1C)c1cccc(F)c1 [IDH-C35] + Cc1nc(NC(=O)N2CCC[C@H]2C(N)=O)sc1-c1ccnc(C(C)(C)C(F)(F)F)c1 [Alpelisib] (partner 2 µM)
Outline: as §1

Cell Line | relative viability ([1]; first compound 0.0025 µM) | relative viability ([1]; first compound 0.007906 µM) | relative viability ([1]; first compound 0.025 µM) | relative viability ([1]; first compound 0.07906 µM) | relative viability ([1]; first compound 0.25 µM) | relative viability (IDH-C35 + Decitabine; first compound 0.08 µM) | relative viability (IDH-C35 + Decitabine; first compound 0.253 µM) | relative viability (IDH-C35 + Decitabine; first compound 0.8 µM) | relative viability (IDH-C35 + Decitabine; first compound 2.53 µM) | relative viability (IDH-C35 + Decitabine; first compound 8 µM) | relative viability ([2]; first compound 0.0025 µM) | relative viability ([2]; first compound 0.007906 µM) | relative viability ([2]; first compound 0.025 µM) | relative viability ([2]; first compound 0.07906 µM) | relative viability ([2]; first compound 0.25 µM) | relative viability (IDH-C35 + Alpelisib; first compound 0.08 µM) | relative viability (IDH-C35 + Alpelisib; first compound 0.253 µM) | relative viability (IDH-C35 + Alpelisib; first compound 0.8 µM) | relative viability (IDH-C35 + Alpelisib; first compound 2.53 µM) | relative viability (IDH-C35 + Alpelisib; first compound 8 µM)
NCI-H1975 | 0.624 | 0.706 | 0.66 | 0.623 | 0.699 | 0.442 | 0.403 | 0.379 | 0.438 | 0.364 | 0.317 | 0.297 | 0.283 | 0.268 | 0.287 | 0.55 | 0.636 | 0.712 | 0.658 | 0.654
CAL-12T | 0.481 | 0.413 | 0.484 | 0.574 | 0.418 | – | – | – | – | – | 1.28 | 1.36 | 0.956 | 1.08 | 1.38 | 1.26 | 1.26 | 1.11 | 1.14 | 1.1
HCC-44 | 0.989 | 0.992 | 0.961 | 0.894 | 1.05 | 0.997 | 0.914 | 0.91 | 0.939 | 0.901 | 0.633 | 0.643 | 0.675 | 0.599 | 0.694 | 0.821 | 0.764 | 0.737 | 0.827 | 0.763
EKVX | 0.475 | 0.44 | 0.417 | 0.368 | 0.39 | 0.343 | 0.399 | 0.4 | 0.321 | 0.339 | 0.365 | 0.429 | 0.412 | 0.293 | 0.422 | 0.868 | 0.858 | 0.852 | 0.819 | 0.831
NCI-H1651 | 0.54 | 0.562 | 0.493 | 0.532 | 0.508 | 0.528 | 0.629 | 0.593 | 0.615 | 0.555 | 0.587 | 0.598 | 0.531 | 0.56 | 0.53 | 1.03 | 0.812 | 0.937 | 0.945 | 1
NCI-H1944 | 0.328 | 0.335 | 0.337 | 0.314 | 0.363 | 0.43 | 0.416 | 0.43 | 0.416 | 0.437 | 0.614 | 0.681 | 0.609 | 0.594 | 0.622 | 0.848 | 0.911 | 0.826 | 0.75 | 0.81
NCI-H1703 | – | – | – | – | – | – | – | – | – | – | – | – | – | – | – | 0.379 | 0.372 | 0.405 | 0.343 | 0.309
Calu-6 | – | – | – | – | – | – | – | – | – | – | – | – | – | – | – | 1 | 0.973 | 0.955 | 0.97 | 1.05
EBC-1 | – | – | – | – | – | – | – | – | – | – | – | – | – | – | – | 0.879 | 0.826 | 0.843 | 0.867 | 0.738
SW 1573 | 0.469 | 0.439 | 0.42 | 0.407 | 0.47 | 0.491 | 0.628 | 0.564 | 0.544 | 0.465 | 0.759 | 1.05 | 0.773 | 0.853 | 0.981 | 0.745 | 0.699 | 0.685 | 0.692 | 0.754
A-427 | 0.524 | 0.514 | 0.515 | 0.548 | 0.578 | 0.622 | 0.57 | 0.598 | 0.526 | 0.58 | 1 | 1.07 | 0.935 | 0.906 | 0.983 | 1.06 | 1.04 | 1.04 | 1.07 | 1.1
NCI-H2347 | 0.426 | 0.4 | 0.431 | 0.36 | 0.445 | 0.647 | 0.651 | 0.661 | 0.599 | 0.654 | 0.434 | 0.438 | 0.41 | 0.378 | 0.383 | 1.14 | 1.12 | 1.03 | 1.16 | 1.03
NCI-H1355 | 0.413 | 0.459 | 0.408 | 0.401 | 0.414 | 0.347 | 0.379 | 0.353 | 0.419 | 0.344 | 1.09 | 1.08 | 1.04 | 0.847 | 0.927 | 0.894 | 0.787 | 0.801 | 0.864 | 0.849
NCI-H358 | 0.144 | 0.132 | 0.12 | 0.121 | 0.14 | 0.216 | 0.192 | 0.234 | 0.211 | 0.213 | 0.172 | 0.185 | 0.159 | 0.157 | 0.181 | 0.916 | 0.871 | 0.746 | 0.857 | 0.915
PC-3 [JPC-3] | 0.528 | 0.502 | 0.539 | 0.533 | 0.524 | 0.843 | 0.795 | 0.864 | 0.806 | 0.807 | 1.11 | 1.03 | 1.01 | 1.27 | 0.834 | 1.08 | 1.04 | 0.988 | 1.08 | 1.04
NCI-H2228 | 0.794 | 0.768 | 0.779 | 0.793 | 0.933 | – | – | – | – | – | 0.317 | 0.342 | 0.339 | 0.322 | 0.324 | 0.744 | 0.722 | 0.735 | 0.779 | 0.74
HOP-62 | 0.409 | 0.418 | 0.461 | 0.404 | 0.574 | 0.175 | 0.237 | 0.229 | 0.206 | 0.206 | 0.357 | 0.332 | 0.217 | 0.281 | 0.356 | 1.07 | 0.876 | 0.953 | – | 0.85
HARA | 0.308 | 0.199 | 0.28 | 0.247 | 0.264 | 0.434 | 0.438 | 0.625 | 0.504 | 0.505 | 0.218 | 0.215 | 0.262 | 0.273 | 0.255 | 0.727 | 0.8 | 0.874 | 0.78 | 0.729
